For one assay, the system named is BT-16 cells. Kind of assay: Combination therapy viability assay, BT-16. The format is cell-based. The settings on record: Homo sapiens, cytotoxic drug alone, 72 hours, read-out: IC50 of compound 2.
A further assay relates to DAOY cells. As to the kind of experiment: Combination therapy viability assay, DAOY. The settings on record: Homo sapiens, 72 h, read-out: IC50 of compound 2.
The subject of another assay is MON cells. As to the kind of experiment: Combination therapy viability assay, MON. The format is cell-based. The settings on record: Homo sapiens, cytotoxic drug alone, 72 hours, read-out: IC50 of compound 2.

The values that follow come from PMC5762315, “Inhibition of polo-like kinase 4 (PLK4): a new therapeutic option for rhabdoid tumors and pediatric medulloblastoma” (Oncotarget, 2017).

Each structure is given as a SMILES string.

With `COc1cccc2c1C(=O)c1c(O)c3c(c(O)c1C2=O)C[C@@](O)(C(=O)CO)C[C@@H]3O[C@H]1C[C@H](N)[C@H](O)[C@H](C)O1` [Doxorubicin, doxorubicin], the half-inhibitory concentration (IC50) in the assay with BT-16 cells was 1430 nM; in the assay with DAOY cells, 263 nM; with MON cells, 134 nM.
The matching figures for `COc1cc([C@@H]2c3cc4c(cc3[C@@H](O[C@@H]3O[C@@H]5CO[C@@H](C)O[C@H]5[C@H](O)[C@H]3O)[C@H]3COC(=O)[C@H]23)OCO4)cc(OC)c1O` [Etoposide, etoposide]: 800 nM, 495 nM and 967 nM.
